Test results published in patent publication US9738634B2, “Heterocyclic amide compound and herbicide” (SYNGENTA PARTICIPATIONS AG, priority 2013, dated 2017).

Columns and labels:
Format in all cases: in vivo
Conditions in all cases: treatment dosage 320 g/ha
barnyard grass [1] = experiment: Test Example 1: weedkilling efficacy, preemergent weed treatment in the submerged state; A: barnyard grass
How it was run: (§1)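 Pre-emergence application onto floodwater (4 cm, alluvial soil) on the day of sowing, dose expressed as g/ha from diluted emulsion formulation. Weeds sown with 2.5-leaf transplanted rice as crop; plants held at 25–30 °C in greenhouse and scored against assessment criteria after 3 weeks.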

bulrush = experiment: Test Example 1: weedkilling efficacy, preemergent weed treatment in the submerged state; B: bulrush
How it was run: as §1

oval-leafed pondweed [2] = experiment: Test Example 1: weedkilling efficacy, preemergent weed treatment in the submerged state; C: oval-leafed pondweed
How it was run: as §1

transplanted rice = experiment: Test Example 1: preemergent weed treatment in the submerged state, effect on crop; a: transplanted rice
How it was run: as §1

barnyard grass [3] = experiment: Test Example 2: weedkilling efficacy, growth period weed treatment in the submerged state; A: barnyard grass
How it was run: (§2)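 Weeds treated at the 1-2 leaf stage by application of diluted emulsion onto floodwater (4 cm depth, alluvial soil) at specified g/ha. Grown in greenhouse at 25 to 30° C; herbicidal effect rated three weeks after treatment.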

oval-leafed pondweed [4] = experiment: Test Example 2: weedkilling efficacy, growth period weed treatment in the submerged state; C: oval-leafed pondweed
How it was run: as §2

crabgrass [5] = experiment: Test Example 3: weedkilling efficacy through soil treatment; D: crabgrass
How it was run: (§3)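 Crop and weed responses were judged three weeks after a uniform surface spray of the water-diluted emulsion at the given g/ha rate. Seeds sat beneath about 1.5 cm of sterilized diluvial soil, and boxes stood in a greenhouse at 25 to 30° C.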

green foxtail [6] = experiment: Test Example 3: weedkilling efficacy through soil treatment; E: green foxtail
How it was run: as §3

barnyard grass [7] = experiment: Test Example 3: weedkilling efficacy through soil treatment; F: barnyard grass
How it was run: as §3

wild oat [8] = experiment: Test Example 3: weedkilling efficacy through soil treatment; G: wild oat
How it was run: as §3

black-grass [9] = experiment: Test Example 3: weedkilling efficacy through soil treatment; H: black-grass
How it was run: as §3

Italian ryegrass [10] = experiment: Test Example 3: weedkilling efficacy through soil treatment; I: Italian ryegrass
How it was run: as §3

common wind-grass [11] = experiment: Test Example 3: weedkilling efficacy through soil treatment; J: common wind-grass
How it was run: as §3

Indian mallow [12] = experiment: Test Example 3: weedkilling efficacy through soil treatment; K: Indian mallow
How it was run: as §3

redroot pigweed [13] = experiment: Test Example 3: weedkilling efficacy through soil treatment; L: redroot pigweed
How it was run: as §3

fig-leafed goosefoot [14] = experiment: Test Example 3: weedkilling efficacy through soil treatment; M: fig-leafed goosefoot
How it was run: as §3

chickweed [15] = experiment: Test Example 3: weedkilling efficacy through soil treatment; N: chickweed
How it was run: as §3

catchweed [16] = experiment: Test Example 3: weedkilling efficacy through soil treatment; O: catchweed
How it was run: as §3

birds-eye speedwell [17] = experiment: Test Example 3: weedkilling efficacy through soil treatment; p: birds-eye speedwell
How it was run: as §3

directly sown rice [18] = experiment: Test Example 3: soil treatment, effect on crop; b: directly sown rice
How it was run: as §3

corn [19] = experiment: Test Example 3: soil treatment, effect on crop; c: corn
How it was run: as §3

soybean [20] = experiment: Test Example 3: soil treatment, effect on crop; d: soybean
How it was run: as §3

wheat [21] = experiment: Test Example 3: soil treatment, effect on crop; e: wheat
How it was run: as §3

beet [22] = experiment: Test Example 3: soil treatment, effect on crop; f: beet
How it was run: as §3

rapeseed [23] = experiment: Test Example 3: soil treatment, effect on crop; g: rapeseed
How it was run: as §3

crabgrass [24] = experiment: Test Example 4: weedkilling efficacy by foliar treatment; D: crabgrass
How it was run: (§4)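 Seeds are spot-sown into sterilized diluvial soil and covered with about 1.5 cm of soil. After 14 days' greenhouse growth at 25 to 30° C, plants are sprayed on stems and leaves with diluted emulsion at the stated g/ha rate, then scored at 3 weeks.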

green foxtail [25] = experiment: Test Example 4: weedkilling efficacy by foliar treatment; E: green foxtail
How it was run: as §4

barnyard grass [26] = experiment: Test Example 4: weedkilling efficacy by foliar treatment; F: barnyard grass
How it was run: as §4

wild oat [27] = experiment: Test Example 4: weedkilling efficacy by foliar treatment; G: wild oat
How it was run: as §4

black-grass [28] = experiment: Test Example 4: weedkilling efficacy by foliar treatment; H: black-grass
How it was run: as §4

Italian ryegrass [29] = experiment: Test Example 4: weedkilling efficacy by foliar treatment; I: Italian ryegrass
How it was run: as §4

common wind-grass [30] = experiment: Test Example 4: weedkilling efficacy by foliar treatment; J: common wind-grass
How it was run: as §4

Indian mallow [31] = experiment: Test Example 4: weedkilling efficacy by foliar treatment; K: Indian mallow
How it was run: as §4

redroot pigweed [32] = experiment: Test Example 4: weedkilling efficacy by foliar treatment; L: redroot pigweed
How it was run: as §4

fig-leafed goosefoot [33] = experiment: Test Example 4: weedkilling efficacy by foliar treatment; M: fig-leafed goosefoot
How it was run: as §4

chickweed [34] = experiment: Test Example 4: weedkilling efficacy by foliar treatment; N: chickweed
How it was run: as §4

catchweed [35] = experiment: Test Example 4: weedkilling efficacy by foliar treatment; O: catchweed
How it was run: as §4

birds-eye speedwell [36] = experiment: Test Example 4: weedkilling efficacy by foliar treatment; p: birds-eye speedwell
How it was run: as §4

directly sown rice [37] = experiment: Test Example 4: foliar treatment, effect on crop; b: directly sown rice
How it was run: as §4

corn [38] = experiment: Test Example 4: foliar treatment, effect on crop; c: corn
How it was run: as §4

soybean [39] = experiment: Test Example 4: foliar treatment, effect on crop; d: soybean
How it was run: as §4

wheat [40] = experiment: Test Example 4: foliar treatment, effect on crop; e: wheat
How it was run: as §4

beet [41] = experiment: Test Example 4: foliar treatment, effect on crop; f: beet
How it was run: as §4

rapeseed [42] = experiment: Test Example 4: foliar treatment, effect on crop; g: rapeseed
How it was run: as §4

## CC1=C(c2ccccc2)C(=O)N(C(C)(C)C(=O)Nc2ccc3ccccc3n2)CO1 [B-1-18]
Barnyard grass [1]
  A (barnyard grass) weedkilling efficacy grade: 5 (weed kill ratio 90% or more, (practically complete withering))
bulrush
  B (bulrush) weedkilling efficacy grade: 5 (weed kill ratio 90% or more, (practically complete withering))
oval-leafed pondweed [2]
  C (oval-leafed pondweed) weedkilling efficacy grade: 5 (weed kill ratio 90% or more, (practically complete withering))
Transplanted rice
  a (transplanted rice) effect on crop grade: 0 (weed kill ratio 5% or less (practically no effect))
Barnyard grass [3]
  A (barnyard grass) weedkilling efficacy grade: 4 (weed kill ratio 70% or more, less than 90%)
oval-leafed pondweed [4]
  C (oval-leafed pondweed) weedkilling efficacy grade: 5 (weed kill ratio 90% or more, (practically complete withering))
Crabgrass [5]
  D (crabgrass) weedkilling efficacy grade: 3 (weed kill ratio 40% or more, less than 70%)
Green foxtail [6]
  E (green foxtail) weedkilling efficacy grade: 4 (weed kill ratio 70% or more, less than 90%)
Barnyard grass [7]
  F (barnyard grass) weedkilling efficacy grade: 1 (weed kill ratio 5% or more, less than 20%)
Wild oat [8]
  G (wild oat) weedkilling efficacy grade: 0 (weed kill ratio 5% or less (practically no effect))
black-grass [9]
  H (black-grass) weedkilling efficacy grade: 2 (weed kill ratio 20% or more, less than 40%)
Italian ryegrass [10]
  I (Italian ryegrass) weedkilling efficacy grade: 2 (weed kill ratio 20% or more, less than 40%)
Common wind-grass [11]
  J (common wind-grass) weedkilling efficacy grade: 5 (weed kill ratio 90% or more, (practically complete withering))
Indian mallow [12]
  K (Indian mallow) weedkilling efficacy grade: 0 (weed kill ratio 5% or less (practically no effect))
Redroot pigweed [13]
  L (redroot pigweed) weedkilling efficacy grade: 0 (weed kill ratio 5% or less (practically no effect))
fig-leafed goosefoot [14]
  M (fig-leafed goosefoot) weedkilling efficacy grade: 0 (weed kill ratio 5% or less (practically no effect))
Chickweed [15]
  N (chickweed) weedkilling efficacy grade: 0 (weed kill ratio 5% or less (practically no effect))
Catchweed [16]
  O (catchweed) weedkilling efficacy grade: 0 (weed kill ratio 5% or less (practically no effect))
birds-eye speedwell [17]
  P (birds-eye speedwell) weedkilling efficacy grade: 0 (weed kill ratio 5% or less (practically no effect))
Directly sown rice [18]
  b (directly sown rice) effect on crop grade: 0 (weed kill ratio 5% or less (practically no effect))
Corn [19]
  c (corn) effect on crop grade: 0 (weed kill ratio 5% or less (practically no effect))
Soybean [20]
  d (soybean) effect on crop grade: 0 (weed kill ratio 5% or less (practically no effect))
Wheat [21]
  e (wheat) effect on crop grade: 0 (weed kill ratio 5% or less (practically no effect))
Beet [22]
  f (beet) effect on crop grade: 0 (weed kill ratio 5% or less (practically no effect))
Rapeseed [23]
  g (rapeseed) effect on crop grade: 0 (weed kill ratio 5% or less (practically no effect))
Crabgrass [24]
  D (crabgrass) weedkilling efficacy grade: 2 (weed kill ratio 20% or more, less than 40%)
Green foxtail [25]
  E (green foxtail) weedkilling efficacy grade: 3 (weed kill ratio 40% or more, less than 70%)
Barnyard grass [26]
  F (barnyard grass) weedkilling efficacy grade: 2 (weed kill ratio 20% or more, less than 40%)
Wild oat [27]
  G (wild oat) weedkilling efficacy grade: 0 (weed kill ratio 5% or less (practically no effect))
black-grass [28]
  H (black-grass) weedkilling efficacy grade: 1 (weed kill ratio 5% or more, less than 20%)
Italian ryegrass [29]
  I (Italian ryegrass) weedkilling efficacy grade: 1 (weed kill ratio 5% or more, less than 20%)
Common wind-grass [30]
  J (common wind-grass) weedkilling efficacy grade: 3 (weed kill ratio 40% or more, less than 70%)
Indian mallow [31]
  K (Indian mallow) weedkilling efficacy grade: 3 (weed kill ratio 40% or more, less than 70%)
Redroot pigweed [32]
  L (redroot pigweed) weedkilling efficacy grade: 2 (weed kill ratio 20% or more, less than 40%)
fig-leafed goosefoot [33]
  M (fig-leafed goosefoot) weedkilling efficacy grade: 3 (weed kill ratio 40% or more, less than 70%)
Chickweed [34]
  N (chickweed) weedkilling efficacy grade: 3 (weed kill ratio 40% or more, less than 70%)
Catchweed [35]
  O (catchweed) weedkilling efficacy grade: 4 (weed kill ratio 70% or more, less than 90%)
birds-eye speedwell [36]
  P (birds-eye speedwell) weedkilling efficacy grade: 4 (weed kill ratio 70% or more, less than 90%)
Directly sown rice [37]
  b (directly sown rice) effect on crop grade: 0 (weed kill ratio 5% or less (practically no effect))
Corn [38]
  c (corn) effect on crop grade: 1 (weed kill ratio 5% or more, less than 20%)
Soybean [39]
  d (soybean) effect on crop grade: 0 (weed kill ratio 5% or less (practically no effect))
Wheat [40]
  e (wheat) effect on crop grade: 0 (weed kill ratio 5% or less (practically no effect))
Beet [41]
  f (beet) effect on crop grade: 0 (weed kill ratio 5% or less (practically no effect))
Rapeseed [42]
  g (rapeseed) effect on crop grade: 3 (weed kill ratio 40% or more, less than 70%)
